Laboratory results published in patent publication US11168067B2, “Substituted quinazoline compound having blood-brain barrier penetration capability” (WEISHANG (SHANGHAI) BIO-PHARMACEUTICAL CO., LTD., priority 2016, dated 2021).

Columns and labels:
PC-9 tumor cell = test: CellTiter-Glo (CTG) cell viability assay, PC-9 tumor cell growth inhibition; conditions: for IC50: Homo sapiens, PC-9, 72 h, read-out: PC-9 tumor cell growth inhibition IC50; for inhibiting PC-9 tumor cell growth compared with Iressa: PC-9 cells, cell viability assay
Description: Cell viability of tumor cells with EGFR-activated mutations (exon 19-deficient Exon 19 Del) protein was detected using CellTiter-Glo (CTG) assay; about 5000 cells were seeded in each blank 96-well plate, 16 hours later, add the proportionally diluted compound, equilibrated at room temperature for 72 hours after the addition of the drug for 30 minutes. 100 μl of CellTiter-Glo reagent was added to each well and the orbital shaker was mixed for 2 minutes to induce cell lysis. The plate was incubated at room temperature for 10 minutes to stabilize the luminescence signal. The TECAN Infinite M1000 Pro instrument records the luminescence signal.

[1] = Blood-brain barrier penetration (brain tissue to plasma concentration ratio); type: in vivo; conditions: rat, rats, four hours after dosing
Description: To determine whether the compound was able to cross the blood-brain barrier (BBB), the rats were administered with the test compound. Four hours after dosing, rats were sacrificed, blood and brain tissue were collected and the concentration of the test compound was analyzed. Brain permeation is defined as the ratio of the concentration of the compound in the brain tissue to the concentration in the plasma. P-glycoprotein is the blood-brain barrier efflux protein, […].

Structure (SMILES) | IC50 (PC-9 tumor cell) | inhibiting PC-9 tumor cell growth compared with Iressa (PC-9 tumor cell) | Kp at 4 h [1]
COc1cc2ncnc(Nc3cccc(Cl)c3F)c2cc1OC1CCN(C2COC2)CC1(F)F (racemic) [Compound 1, (R/S)—N-(3-chloro-2-fluorophenyl)-6-((3,3-difluoro-1-(oxetan-3-yl)piperidin-4-yl)oxy)-7-methoxyquinazolin-4-amine] | < 1 nM | more effective than Iressa | > 0.3
C#Cc1cccc(Nc2ncnc3cc(OC)c(OC4CCN(C5COC5)CC4(F)F)cc23)c1F (racemic) [Compound 2, (R/S)-6-((3,3-difluoro-1-(oxetan-3-yl)piperidin-4-yl)oxy)-N-(3-ethynyl-2-fluorophenyl)-7-methoxyquinazolin-4-amine] |  |  | > 0.3
[2H]C([2H])([2H])Oc1cc2ncnc(Nc3cccc(Cl)c3F)c2cc1OC1CCN(C2COC2)CC1(F)F (racemic) [Compound 3, (R/S)—N-(3-chloro-2-fluorophenyl)-6-((3,3-difluoro-1-(oxetan-3-yl)piperidin-4-yl)oxy)-7-(methoxy-d3)quinazolin-4-amine] | < 1 nM |  | > 0.3
[2H]C([2H])([2H])Oc1cc2ncnc(Nc3cccc(C#C)c3F)c2cc1OC1CCN(C2COC2)CC1(F)F (racemic) [Compound 4, (R/S)-6-((3,3-difluoro-1-(oxetan-3-yl)piperidin-4-yl)oxy)-N-(3-ethynyl-2-fluorophenyl)-7-(methoxy-d3)quinazolin-4-amine] |  |  | > 0.3
C#Cc1c(F)ccc(Nc2ncnc3cc(OC)c(OC4CCN(C)CC4(F)F)cc23)c1F (racemic) [Compound 5, (R/S)-6-((3,3-difluoro-1-methylpiperidin-4-yl)oxy)-N-(3-ethynyl-2,4-difluorophenyl)-7-methoxyquinazolin-4-amine] |  |  | > 0.3
C#Cc1cccc(Nc2ncnc3cc(OC)c(OC4CCN(C)CC4(F)F)cc23)c1F (racemic) [Compound 6, (R/S)-6-((3,3-difluoro-1-methylpiperidin-4-yl)oxy)-N-(3-ethynyl-2-fluorophenyl)-7-methoxyquinazolin-4-amine] |  |  | > 0.3
COc1cc2ncnc(Nc3ccc(F)c(Cl)c3F)c2cc1OC1CCN(C2COC2)CC1(F)F (racemic) [Compound 7, (R/S)—N-(3-chloro-2,4-difluorophenyl)-6-((3,3-difluoro-1-(oxetan-3-yl)piperidin-4-yl)oxy)-7-methoxyquinazolin-4-amine] | < 1 nM | more effective than Iressa | > 0.3
C#Cc1c(F)ccc(Nc2ncnc3cc(OC)c(OC4CCN(C5COC5)CC4(F)F)cc23)c1F (racemic) [Compound 8, (R/S)-6-((3,3-difluoro-1-(oxetan-3-yl)piperidin-4-yl)oxy)-N-(3-ethynyl-2,4-difluorophenyl)-7-methoxyquinazolin-4-amine] |  |  | > 0.3
[2H]C([2H])([2H])Oc1cc2ncnc(Nc3ccc(F)c(Cl)c3F)c2cc1OC1CCN(C2COC2)CC1(F)F (racemic) [Compound 9, (R/S)—N-(3-chloro-2,4-difluorophenyl)-6-((3,3-difluoro-1-(oxetan-3-yl)piperidin-4-yl)oxy)-7-(methoxy-d3)quinazolin-4-amine] | < 1 nM | more effective than Iressa | > 0.3
[2H]C([2H])([2H])Oc1cc2ncnc(Nc3ccc(F)c(C#C)c3F)c2cc1OC1CCN(C2COC2)CC1(F)F (racemic) [Compound 10, (R/S)-6-((3,3-difluoro-1-(oxetan-3-yl)piperidin-4-yl)oxy)-N-(3-ethynyl-2,4-difluorophenyl)-7-(methoxy-d3)quinazolin-4-amine] |  |  | > 0.3
COc1cc2ncnc(Nc3cccc(Cl)c3F)c2cc1O[C@@H]1CCN(C2COC2)CC1(F)F [Compound 11, (R)—N-(3-chloro-2-fluorophenyl)-6-((3,3-difluoro-1-(oxetan-3-yl)piperidin-4-yl)oxy)-7-methoxyquinazolin-4-amine] | < 1 nM |  | > 0.3
C#Cc1cccc(Nc2ncnc3cc(OC)c(O[C@@H]4CCN(C5COC5)CC4(F)F)cc23)c1F [Compound 12, (R)-6-((3,3-difluoro-1-(oxetan-3-yl)piperidin-4-yl)oxy)-N-(3-ethynyl-2-fluorophenyl)-7-methoxyquinazolin-4-amine] |  |  | > 0.3
COc1cc2ncnc(Nc3cccc(Cl)c3F)c2cc1O[C@H]1CCN(C2COC2)CC1(F)F [Compound 13, (S)—N-(3-chloro-2-fluorophenyl)-6-((3,3-difluoro-1-(oxetan-3-yl)piperidin-4-yl)oxy)-7-methoxyquinazolin-4-amine] | < 1 nM |  | > 0.3
C#Cc1cccc(Nc2ncnc3cc(OC)c(O[C@H]4CCN(C5COC5)CC4(F)F)cc23)c1F [Compound 14, (S)-6-((3,3-difluoro-1-(oxetan-3-yl)piperidin-4-yl)oxy)-N-(3-ethynyl-2-fluorophenyl)-7-methoxyquinazolin-4-amine] |  |  | > 0.3
[2H]C([2H])([2H])Oc1cc2ncnc(Nc3cccc(Cl)c3F)c2cc1O[C@@H]1CCN(C2COC2)CC1(F)F [Compound 15, (R)—N-(3-chloro-2-fluorophenyl)-6-((3,3-difluoro-1-(oxetan-3-yl)piperidin-4-yl)oxy)-7-(methoxy-d3)quinazolin-4-amine] | < 1 nM |  | > 0.3
[2H]C([2H])([2H])Oc1cc2ncnc(Nc3cccc(C#C)c3F)c2cc1O[C@@H]1CCN(C2COC2)CC1(F)F [Compound 16, (R)-6-((3,3-difluoro-1-(oxetan-3-yl)piperidin-4-yl)oxy)-N-(3-ethynyl-2-fluorophenyl)-7-(methoxy-d3)quinazolin-4-amine] |  |  | > 0.3
[2H]C([2H])([2H])Oc1cc2ncnc(Nc3cccc(Cl)c3F)c2cc1O[C@H]1CCN(C2COC2)CC1(F)F [Compound 17, (S)—N-(3-chloro-2-fluorophenyl)-6-((3,3-difluoro-1-(oxetan-3-yl)piperidin-4-yl)oxy)-7-(methoxy-d3)quinazolin-4-amine] | < 1 nM |  | > 0.3
[2H]C([2H])([2H])Oc1cc2ncnc(Nc3cccc(C#C)c3F)c2cc1O[C@H]1CCN(C2COC2)CC1(F)F [Compound 18, (S)-6-((3,3-difluoro-1-(oxetan-3-yl)piperidin-4-yl)oxy)-N-(3-ethynyl-2-fluorophenyl)-7-(methoxy-d3)quinazolin-4-amine] |  |  | > 0.3
C#Cc1c(F)ccc(Nc2ncnc3cc(OC)c(O[C@@H]4CCN(C)CC4(F)F)cc23)c1F [Compound 19, (R)-6-((3,3-difluoro-1-methylpiperidin-4-yl)oxy)-N-(3-ethynyl-2,4-difluorophenyl)-7-methoxyquinazolin-4-amine] |  |  | > 0.3
C#Cc1cccc(Nc2ncnc3cc(OC)c(O[C@@H]4CCN(C)CC4(F)F)cc23)c1F [Compound 20, (R)-6-((3,3-difluoro-1-methylpiperidin-4-yl)oxy)-N-(3-ethynyl-2-fluorophenyl)-7-methoxyquinazolin-4-amine] |  |  | > 0.3
C#Cc1c(F)ccc(Nc2ncnc3cc(OC)c(O[C@H]4CCN(C)CC4(F)F)cc23)c1F [Compound 21, (S)-6-((3,3-difluoro-1-methylpiperidin-4-yl)oxy)-N-(3-ethynyl-2,4-difluorophenyl)-7-methoxyquinazolin-4-amine] |  |  | > 0.3
C#Cc1cccc(Nc2ncnc3cc(OC)c(O[C@H]4CCN(C)CC4(F)F)cc23)c1F [Compound 22, (S)-6-((3,3-difluoro-1-methylpiperidin-4-yl)oxy)-N-(3-ethynyl-2-fluorophenyl)-7-methoxyquinazolin-4-amine] |  |  | > 0.3
COc1cc2ncnc(Nc3ccc(F)c(Cl)c3F)c2cc1O[C@@H]1CCN(C2COC2)CC1(F)F [Compound 23, (R)—N-(3-chloro-2,4-difluorophenyl)-6-((3,3-difluoro-1-(oxetan-3-yl)piperidin-4-yl)oxy)-7-methoxyquinazolin-4-amine] | < 1 nM |  | > 0.3
C#Cc1c(F)ccc(Nc2ncnc3cc(OC)c(O[C@@H]4CCN(C5COC5)CC4(F)F)cc23)c1F [Compound 24, (R)-6-((3,3-difluoro-1-(oxetan-3-yl)piperidin-4-yl)oxy)-N-(3-ethynyl-2,4-difluorophenyl)-7-methoxyquinazolin-4-amine] |  |  | > 0.3
COc1cc2ncnc(Nc3ccc(F)c(Cl)c3F)c2cc1O[C@H]1CCN(C2COC2)CC1(F)F [Compound 25, (S)—N-(3-chloro-2,4-difluorophenyl)-6-((3,3-difluoro-1-(oxetan-3-yl)piperidin-4-yl)oxy)-7-methoxyquinazolin-4-amine] | < 1 nM |  | > 0.3
C#Cc1c(F)ccc(Nc2ncnc3cc(OC)c(O[C@H]4CCN(C5COC5)CC4(F)F)cc23)c1F [Compound 26, (S)-6-((3,3-difluoro-1-(oxetan-3-yl)piperidin-4-yl)oxy)-N-(3-ethynyl-2,4-difluorophenyl)-7-methoxyquinazolin-4-amine] |  |  | > 0.3
[2H]C([2H])([2H])Oc1cc2ncnc(Nc3ccc(F)c(Cl)c3F)c2cc1O[C@@H]1CCN(C2COC2)CC1(F)F [Compound 27, (R)—N-(3-chloro-2,4-difluorophenyl)-6-((3,3-difluoro-1-(oxetan-3-yl)piperidin-4-yl)oxy)-7-(methoxy-d3)quinazolin-4-amine] | < 1 nM |  | > 0.3
[2H]C([2H])([2H])Oc1cc2ncnc(Nc3ccc(F)c(C#C)c3F)c2cc1O[C@@H]1CCN(C2COC2)CC1(F)F [Compound 28, (R)-6-((3,3-difluoro-1-(oxetan-3-yl)piperidin-4-yl)oxy)-N-(3-ethynyl-2,4-difluorophenyl)-7-(methoxy-d3)quinazolin-4-amine] |  |  | > 0.3
[2H]C([2H])([2H])Oc1cc2ncnc(Nc3ccc(F)c(C#C)c3F)c2cc1O[C@H]1CCN(C2COC2)CC1(F)F [Compound 30, (S)-6-((3,3-difluoro-1-(oxetan-3-yl)piperidin-4-yl)oxy)-N-(3-ethynyl-2,4-difluorophenyl)-7-(methoxy-d3)quinazolin-4-amine] |  |  | > 0.3
